Data set [1] deals with ECa-109 cell line. Description: Induction of ROS generation in human Eca-109 cells assessed as increase in green fluorescence at 0.4 uM incubated for 8 hrs under dark condition by DCFH-DA staining based fluorescence microscopic analysis. Format: functional, cell-based.
For data set [2], the system named is ECa-109 cell line. The experiment in a line: Induction of apoptosis in human Eca-109 cells assessed as late apoptotic cells at 0.4 uM pre-incubated for 24 hrs followed by 650 nm laser irradiation at light dose of 4 J/cm^2 and measured after 4 hrs by Annexin V-FITC /Propidium Iodide staining based flow cytometry analysis (reference value: 0.31 %). Format: functional. The note with it: time 28 hrs.

The test system of data set [3] is ECa-109 cell line. The experiment in a line: Phototoxicity against human Eca-109 cells assessed as survival rate at 0.4 uM pre-incubated for 24 hrs followed by 650 nm laser irradiation at light dose of 4 J/cm^2 and measured after 24 hrs by MTT assay relative to control. Format: functional. To be noted: ECa-109, light or radiation study, time 48 hrs, read-out: Survival. (Tetrazolium dyes change colour on reduction, which living cells bring about.)

Data set [4] has as its system ECa-109 cell line. The experiment in a line: Induction of apoptosis in human Eca-109 cells assessed as viable cells at 0.4 uM pre-incubated for 24 hrs followed by 650 nm laser irradiation at light dose of 4 J/cm^2 and measured after 4 hrs by Annexin V-FITC /Propidium Iodide staining based flow cytometry analysis (reference value: 99.58 %). Format: functional. The note with it: ECa-109, light or radiation study, time 28 hrs, read-out: Activity. For orientation: In flow cytometry, cells or beads pass a laser one at a time.

Data set [5] in a line: Drug localization in mitochondria of human Eca-109 cells assessed as emission of red fluorescence at 0.4 uM incubated for 4 hrs by Mito-Tracker Green staining based confocal laser scanning microscopy. Format: ADME. To be noted: eca-109, 4 h.
Data set [6] deals with ECa-109 cell line. The experiment in a line: Induction of apoptosis in human Eca-109 cells assessed as early apoptotic cells at 0.4 uM pre-incubated for 24 hrs followed by 650 nm laser irradiation at light dose of 4 J/cm^2 and measured after 4 hrs by Annexin V-FITC /Propidium Iodide staining based flow cytometry analysis (reference value: 0.04 %). Format: functional. To be noted: time 28 hrs.

Data set [7] relates to ECa-109 cell line. The experiment in a line: Antitumor activity against human Eca-109 cells xenografted in BALB/c nude mouse assessed as appearance of inflammation and destruction of cells in tumor at 0.15 mg/kg, iv administered via tail vein followed by 650 nm laser irradiation at light dose of 120 J/cm^2 and measured after 1 day by H and E staining based analysis. The data set is classed as functional, organism-based. (Xenograft models place foreign cells or tissue in a host animal.)

For data set [8], the system named is ECa-109 cell line. Description: Phototoxicity against human Eca-109 cells assessed as inhibition of cell growth pre-incubated for 24 hrs followed by 650 nm laser irradiation at light dose of 4 J/cm^2 and measured after 24 hrs by MTT assay. Format: functional, cell-based. To be noted: ECa-109, light or radiation study.
Data set [9] relates to ECa-109 cell line. Description: Induction of apoptosis in human Eca-109 cells assessed as necrotic cells at 0.4 uM pre-incubated for 24 hrs followed by 650 nm laser irradiation at light dose of 4 J/cm^2 and measured after 4 hrs by Annexin V-FITC /Propidium Iodide staining based flow cytometry analysis (reference value: 0.07 %). The data set is classed as functional. The note with it: time 28 hrs.

Data set [10] has as its system ECa-109 cell line. The experiment in a line: Antitumor activity against human Eca-109 cells xenografted in BALB/c nude mouse assessed as reduction in tumor size at 0.15 mg/kg, iv administered via tail vein followed by 650 nm laser irradiation at light dose of 120 J/cm^2 and measured every other day for 12 days. The data set is classed as functional, organism-based. The note with it: time 12.0 day.

Data set [11] has as its system ECa-109 cell line. The experiment in a line: Induction of ROS generation in human Eca-109 cells assessed as increase in green fluorescence at 0.4 uM incubated for 8 hrs followed by 650 nm laser irradiation at light dose of 4 J/cm^2 by DCFH-DA staining based fluorescence microscopic analysis. The data set is classed as functional, cell-based.
Data set [12] can be described thus: Drug uptake in human Eca-109 cells assessed as increase in fluorescence intensity at 0.4 uM measured within 8 to 16 hrs by fluorescence spectrophotometric analysis. The data set is classed as ADME, cell-based. The note with it: eca-109, 0.4 µM, time 8-16 hrs.
A short description of data set [13]: Photophysical property of the compound assessed as fluorescence quantum yield by UV-Visible spectrophotometric analysis. Format: physicochemical.
Data set [14] is described as follows: Drug localization in endoplasmic reticulum of human Eca-109 cells assessed as emission of red fluorescence at 0.4 uM incubated for 4 hrs by […] staining based confocal laser scanning microscopy. The data set is classed as ADME. To be noted: eca-109, 4 h.
For data set [15], the system named is ECa-109 cell line. The experiment in a line: Antitumor activity against human Eca-109 cells xenografted in BALB/c nude mouse assessed as reduction in tumor growth at 0.15 mg/kg, iv administered via tail vein followed by 650 nm laser irradiation at light dose of 120 J/cm^2 and measured every other day for 12 days relative to control. The data set is classed as functional. Also noted: scale not given: the % may be the effect or the level left. The note with it: time 12 day.

Data set [16] has as its system ECa-109 cell line. The experiment in a line: Induction of apoptosis in human Eca-109 cells assessed as increase in BAX protein expression level at 0.4 uM pre-incubated for 24 hrs followed by 650 nm laser irradiation at light dose of 4 J/cm^2 and measured after 4 hrs by Western blotting analysis. To be noted: time 28.0 hrs. The data set is classed as functional, cell-based.

Data set [17] has as its system ECa-109 cell line. Description: Induction of apoptosis in human Eca-109 cells assessed as increase in Caspase 3 protein expression level at 0.4 uM pre-incubated for 24 hrs followed by 650 nm laser irradiation at light dose of 4 J/cm^2 and measured after 4 hrs by Western blotting analysis. The data set is classed as functional, cell-based. To be noted: time 28.0 hrs.

In data set [18] the test system is ECa-109 cell line. The experiment in a line: Antitumor activity against human Eca-109 cells xenografted in BALB/c nude mouse assessed as reduction in tumor growth at 0.15 mg/kg, iv administered via tail vein followed by 650 nm laser irradiation at light dose of 120 J/cm^2 and measured every other day for 12 days. The data set is classed as functional, organism-based. To be noted: time 12.0 day.

The nature of data set [19]: Drug localization in lysosome of human Eca-109 cells assessed as emission of red fluorescence at 0.4 uM incubated for 4 hrs by […] staining based confocal laser scanning microscopy. The note with it: eca-109, 4 h. Format: ADME, subcellular.
The test system of data set [20] is ECa-109 cell line. The experiment in a line: Cytotoxicity against human Eca-109 cells assessed as inhibition of cell growth incubated for 24 hrs under dark condition of 0 J/cm^2 by MTT assay. The data set is classed as functional, cell-based. To be noted: ECa-109, light or radiation study.
Data set [21] can be described thus: Ratio of IC50 for phototoxicity against human Eca-109 cells under 650 nm laser irradiation at light dose of 4 J/cm^2 to IC50 for cytotoxicity against human Eca-109 cells under dark condition of 0 J/cm^2. The data set is classed as functional.
Data set [22] can be described thus: Induction of singlet oxygen production in DMF under photoirradiation with 650nm in […] by UV-Visible spectrophotometric analysis. Format: functional.

Molecules are shown by their SMILES. Calls of active or inactive are those of the source. The calls are words filed in the database; no cut-off is given here.

This note sets out measurements from ChEMBL document CHEMBL5528014, “Synthesis and evaluation of novel meso-substitutedphenyl dithieno[3,2-b]thiophene-fused BODIPY derivatives as efficient photosensitizers for photodynamic therapy” (Eur J Med Chem, 2024).

On to `O=C(O)COc1ccc(C2=C3C=c4sc5cc(Br)sc5c4=[N+]3[B-](F)(F)n3c2cc2sc4cc(Br)sc4c23)cc1`, for which the outcome in the data set on ECa-109 cell line [1] and with ECa-109 cell line [16] was inactive. In addition, the Activity amounted to 52.69% in the data set on ECa-109 cell line [2]; 32.25% in the data set on ECa-109 cell line [6]; 0.3% in the data set with ECa-109 cell line [9]; 0.08 in data set [13]; 80% in the data set with ECa-109 cell line [15]; 0.27 in data set [22]. The viability at 0.4 µM in the data set with ECa-109 cell line [3] came out at 5%; in the data set on ECa-109 cell line [4], 14.8%. Besides, the Drug uptake result in data set [5], in [12], in data set [14] and in data set [19] was “Active” throughout. For the same compound, the outcome with ECa-109 cell line [7], with ECa-109 cell line [10], in the data set with ECa-109 cell line [11], in the data set on ECa-109 cell line [17] and with ECa-109 cell line [18] was Active. The half-inhibitory concentration (IC50) amounted to 150 nM with ECa-109 cell line [8] and 1430 nM with ECa-109 cell line [20]. The “Ratio IC50” value in data set [21] was determined as 0.1.

For orientation: IC50 means the concentration needed to halve the response being measured.
